Reference: ChEMBL document CHEMBL1129133 (Bioorg Med Chem Lett, 1996)

Assays:
[1] = Lipophilicity was determined; format: physicochemical; details: octanol/water
[2] = molecular target: cGMP-specific 3',5'-cyclic phosphodiesterase (Homo sapiens, UniProt O76074); assay: Inhibition of Phosphodiesterase 5 from human corpus cavernosum
Phosphodiesterase 1 = Phosphodiesterase 1 (Rattus norvegicus, UniProt Q63421+Q9EPR9+Q01066); assay: Inhibition of Phosphodiesterase 1 from rat liver
Phosphodiesterase 3 = Phosphodiesterase 3 (Homo sapiens, UniProt Q14432+Q13370); assay: Inhibition of Phosphodiesterase 3 from rabbit platelets; parameters: species or system Oryctolagus cuniculus; details: target entry is the homologue from another species

SMILES	logD [1]	IC50 [2] [µM]	IC50 (Phosphodiesterase 1) [µM]	IC50 (Phosphodiesterase 3) [µM]
CCCc1nn(C)c2c(=O)[nH]c(-c3cc(S(=O)(=O)N4CCN(C)CC4)ccc3OCC)nc12	2.7			
CCCc1nn(C)c2c(O)nc(-c3cc(S(=O)(=O)N4CCN(C(N)=O)CC4)ccc3OCC)nc12	2.3		0.11	34
CCOc1ccccc1-c1nc2c(C)nn(C)c2c(=O)[nH]1			3.3	> 100
CCCc1nn(C)c2c(=O)[nH]c(-c3ccccc3OCC3CC3)nc12				47
CCCc1nn(C)c2c(=O)[nH]c(-c3ccccc3NS(C)(=O)=O)nc12				83
CCCc1nn(C)c2c(=O)[nH]c(-c3cc(S(=O)(=O)N4CCNCC4)ccc3OCC)nc12	1.5		0.39	> 100
CCCc1nn(C)c2c(=O)[nH]c(-c3cc(S(=O)(=O)N4CCN(CCO)CC4)ccc3OCC)nc12 [LODENAFIL]	2		0.46	62
CCCOc1ccccc1-c1nc2[nH]nnc2c(=O)[nH]1 [ZAPRINAST]			9.4	> 100

Results, then the compound that gave them:

logD [1]	IC50 [2] [µM]	IC50 (Phosphodiesterase 1) [µM]	IC50 (Phosphodiesterase 3) [µM]	SMILES
	0.082	0.86		CCCc1n[nH]c2c(O)nc(-c3ccccc3OCC)nc12
			> 100	CCCc1n[nH]c2c(O)nc(-c3ccccc3O)nc12
			63	CCCc1n[nH]c2c(=O)[nH]c(-c3ccccc3)nc12
			> 100	CCCc1nn(C)c2c(=O)[nH]c(-c3ccccc3[N+](=O)[O-])nc12
4	0.027	0.79	> 100	CCCc1nn(C)c2c(=O)[nH]c(-c3ccccc3OCC)nc12
